Reference: PMC7385619, “A triple action CDK4/6-PI3K-BET inhibitor with augmented cancer cell cytotoxicity” (Cell Discovery, 2020)
Where two headings read alike, the source gives them in different places.

Legend:
Test in all cases: KINOMEscan assay (Eurofins DiscoverX)
Type in all cases: binding
[1] = molecular target: T1, kinome (kinase panel) (Homo sapiens, UniProt O75116); details: ROCK2; 1000 nM; read-out: Percent Control
T1 construct: purchased Eurofins DiscoverX

[2] = molecular target: T2, kinome (kinase panel) (Homo sapiens, UniProt Q96L34); details: MARK4; 1000 nM; read-out: Percent Control
T2 construct: purchased Eurofins DiscoverX

[3] = molecular target: T3, kinome (kinase panel) (Homo sapiens, UniProt P42338); details: PIK3CB; 1000 nM; read-out: Percent Control
T3 construct: purchased Eurofins DiscoverX

[4] = molecular target: T4, kinome (kinase panel) (Homo sapiens, UniProt P51617); details: IRAK1; 1000 nM; read-out: Percent Control
T4 construct: purchased Eurofins DiscoverX

[5] = molecular target: T5, kinome (kinase panel) (Homo sapiens, UniProt Q86Z02); details: HIPK1; 1000 nM; read-out: Percent Control
T5 construct: purchased Eurofins DiscoverX

[6] = molecular target: T6, kinome (kinase panel) (Homo sapiens, UniProt Q6ZWH5); details: NEK10; 1000 nM; read-out: Percent Control
T6 construct: purchased Eurofins DiscoverX

[7] = molecular target: T7, kinome (kinase panel) (Homo sapiens, UniProt Q96PY6); details: NEK1; 1000 nM; read-out: Percent Control
T7 construct: purchased Eurofins DiscoverX

[8] = molecular target: T8, kinome (kinase panel) (Homo sapiens, UniProt P36894); details: BMPR1A; 1000 nM; read-out: Percent Control
T8 construct: purchased Eurofins DiscoverX

[9] = molecular target: T9, kinome (kinase panel) (Homo sapiens, UniProt Q00532); details: CDKL1; 1000 nM; read-out: Percent Control
T9 construct: purchased Eurofins DiscoverX

[10] = molecular target: T10, kinome (kinase panel) (Homo sapiens, UniProt O60285); details: ARK5 (Entrez NUAK1); 1000 nM; read-out: Percent Control
T10 construct: purchased Eurofins DiscoverX

[11] = molecular target: T11, kinome (kinase panel) (Homo sapiens, UniProt P00519, T315I)
T11 construct: purchased Eurofins DiscoverX

[12] = molecular target: T12, kinome (kinase panel) (Homo sapiens, UniProt Q8IVH8); details: MAP4K3; 1000 nM; read-out: Percent Control
T12 construct: purchased Eurofins DiscoverX

[13] = molecular target: T13, kinome (kinase panel) (Homo sapiens, UniProt P31749); details: AKT1; 1000 nM; read-out: Percent Control
T13 construct: purchased Eurofins DiscoverX

[14] = molecular target: T14, kinome (kinase panel) (Homo sapiens, UniProt O96013); details: PAK4; 1000 nM; read-out: Percent Control
T14 construct: purchased Eurofins DiscoverX

[15] = molecular target: T15, kinome (kinase panel) (Homo sapiens, UniProt P10721); details: 1000 nM, read-out: Percent Control
T15 construct: purchased Eurofins DiscoverX

[16] = molecular target: T16, kinome (kinase panel) (Homo sapiens, UniProt P78362); details: SRPK2; 1000 nM; read-out: Percent Control
T16 construct: purchased Eurofins DiscoverX

[17] = molecular target: T17, kinome (kinase panel) (Homo sapiens, UniProt P51817); details: PRKX; 1000 nM; read-out: Percent Control
T17 construct: purchased Eurofins DiscoverX

[18] = molecular target: T18, kinome (kinase panel) (Homo sapiens, UniProt Q8NE63); details: HIPK4; 1000 nM; read-out: Percent Control
T18 construct: purchased Eurofins DiscoverX

[19] = molecular target: T19, kinome (kinase panel) (Homo sapiens, UniProt Q9H0K1); details: SIK2; 1000 nM; read-out: Percent Control
T19 construct: purchased Eurofins DiscoverX

[20] = molecular target: T20, kinome (kinase panel) (Homo sapiens, UniProt Q13523); details: PRP4 (Entrez PRPF4B); 1000 nM; read-out: Percent Control
T20 construct: purchased Eurofins DiscoverX

[21] = molecular target: T21, kinome (kinase panel) (Homo sapiens, UniProt P19525); details: PRKR (Entrez EIF2AK2); 1000 nM; read-out: Percent Control
T21 construct: purchased Eurofins DiscoverX

[22] = molecular target: T22, kinome (kinase panel) (Homo sapiens, UniProt P37173); details: TGFBR2; 1000 nM; read-out: Percent Control
T22 construct: purchased Eurofins DiscoverX

[23] = molecular target: T23, kinome (kinase panel) (Homo sapiens, UniProt Q9BXA7); details: TSSK1B; 1000 nM; read-out: Percent Control
T23 construct: purchased Eurofins DiscoverX

[24] = molecular target: T24, kinome (kinase panel) (Homo sapiens, UniProt Q9BX84); details: TRPM6; 1000 nM; read-out: Percent Control
T24 construct: purchased Eurofins DiscoverX

[25] = molecular target: T25, kinome (kinase panel) (Homo sapiens, UniProt Q9UEW8); details: STK39; 1000 nM; read-out: Percent Control
T25 construct: purchased Eurofins DiscoverX

[26] = molecular target: T26, kinome (kinase panel) (Homo sapiens, UniProt O14920); details: IKK-beta (Entrez IKBKB); 1000 nM; read-out: Percent Control
T26 construct: purchased Eurofins DiscoverX

[27] = molecular target: T27, kinome (kinase panel) (Homo sapiens, UniProt Q8N568); details: DCAMKL2 (Entrez DCLK2); 1000 nM; read-out: Percent Control
T27 construct: purchased Eurofins DiscoverX

[28] = molecular target: T28, kinome (kinase panel) (Homo sapiens, UniProt O94806); details: PRKD3; 1000 nM; read-out: Percent Control
T28 construct: purchased Eurofins DiscoverX

[29] = molecular target: T29, kinome (kinase panel) (Homo sapiens, UniProt P53355); details: DAPK1; 1000 nM; read-out: Percent Control
T29 construct: purchased Eurofins DiscoverX

[30] = molecular target: T30, kinome (kinase panel) (Homo sapiens, UniProt P35590); details: TIE1; 1000 nM; read-out: Percent Control
T30 construct: purchased Eurofins DiscoverX

[31] = molecular target: T31, kinome (kinase panel) (Homo sapiens, UniProt Q8TD08); details: ERK8 (Entrez MAPK15); 1000 nM; read-out: Percent Control
T31 construct: purchased Eurofins DiscoverX

[32] = molecular target: T32, kinome (kinase panel) (Homo sapiens, UniProt Q8WXR4); details: MYO3B; 1000 nM; read-out: Percent Control
T32 construct: purchased Eurofins DiscoverX

T15 sequence (P10721 26-976): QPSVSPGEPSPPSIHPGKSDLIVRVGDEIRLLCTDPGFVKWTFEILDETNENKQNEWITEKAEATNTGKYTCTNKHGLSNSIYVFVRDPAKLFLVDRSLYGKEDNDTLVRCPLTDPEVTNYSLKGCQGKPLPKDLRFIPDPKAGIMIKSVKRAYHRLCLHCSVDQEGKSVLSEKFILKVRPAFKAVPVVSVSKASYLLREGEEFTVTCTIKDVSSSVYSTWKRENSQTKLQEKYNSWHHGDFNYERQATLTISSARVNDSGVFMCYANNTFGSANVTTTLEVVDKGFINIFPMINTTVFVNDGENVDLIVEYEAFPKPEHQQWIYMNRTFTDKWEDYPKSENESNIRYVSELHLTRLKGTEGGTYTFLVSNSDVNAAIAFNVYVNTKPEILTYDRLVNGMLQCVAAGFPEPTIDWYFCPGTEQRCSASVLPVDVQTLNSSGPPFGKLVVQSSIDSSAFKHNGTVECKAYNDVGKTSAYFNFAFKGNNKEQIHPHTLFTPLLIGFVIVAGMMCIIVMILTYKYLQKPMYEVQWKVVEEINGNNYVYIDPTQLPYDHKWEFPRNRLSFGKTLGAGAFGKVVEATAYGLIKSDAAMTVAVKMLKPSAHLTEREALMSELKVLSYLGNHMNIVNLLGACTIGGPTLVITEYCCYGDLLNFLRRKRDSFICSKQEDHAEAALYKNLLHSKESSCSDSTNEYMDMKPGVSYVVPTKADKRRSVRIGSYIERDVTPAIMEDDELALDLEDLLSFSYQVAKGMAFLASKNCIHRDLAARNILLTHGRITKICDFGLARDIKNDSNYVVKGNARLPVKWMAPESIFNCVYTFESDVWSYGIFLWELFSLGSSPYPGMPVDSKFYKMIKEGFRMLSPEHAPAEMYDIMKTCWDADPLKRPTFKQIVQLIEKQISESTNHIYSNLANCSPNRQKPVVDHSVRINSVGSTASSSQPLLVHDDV
T24 sequence (Q9BX84 whole entry): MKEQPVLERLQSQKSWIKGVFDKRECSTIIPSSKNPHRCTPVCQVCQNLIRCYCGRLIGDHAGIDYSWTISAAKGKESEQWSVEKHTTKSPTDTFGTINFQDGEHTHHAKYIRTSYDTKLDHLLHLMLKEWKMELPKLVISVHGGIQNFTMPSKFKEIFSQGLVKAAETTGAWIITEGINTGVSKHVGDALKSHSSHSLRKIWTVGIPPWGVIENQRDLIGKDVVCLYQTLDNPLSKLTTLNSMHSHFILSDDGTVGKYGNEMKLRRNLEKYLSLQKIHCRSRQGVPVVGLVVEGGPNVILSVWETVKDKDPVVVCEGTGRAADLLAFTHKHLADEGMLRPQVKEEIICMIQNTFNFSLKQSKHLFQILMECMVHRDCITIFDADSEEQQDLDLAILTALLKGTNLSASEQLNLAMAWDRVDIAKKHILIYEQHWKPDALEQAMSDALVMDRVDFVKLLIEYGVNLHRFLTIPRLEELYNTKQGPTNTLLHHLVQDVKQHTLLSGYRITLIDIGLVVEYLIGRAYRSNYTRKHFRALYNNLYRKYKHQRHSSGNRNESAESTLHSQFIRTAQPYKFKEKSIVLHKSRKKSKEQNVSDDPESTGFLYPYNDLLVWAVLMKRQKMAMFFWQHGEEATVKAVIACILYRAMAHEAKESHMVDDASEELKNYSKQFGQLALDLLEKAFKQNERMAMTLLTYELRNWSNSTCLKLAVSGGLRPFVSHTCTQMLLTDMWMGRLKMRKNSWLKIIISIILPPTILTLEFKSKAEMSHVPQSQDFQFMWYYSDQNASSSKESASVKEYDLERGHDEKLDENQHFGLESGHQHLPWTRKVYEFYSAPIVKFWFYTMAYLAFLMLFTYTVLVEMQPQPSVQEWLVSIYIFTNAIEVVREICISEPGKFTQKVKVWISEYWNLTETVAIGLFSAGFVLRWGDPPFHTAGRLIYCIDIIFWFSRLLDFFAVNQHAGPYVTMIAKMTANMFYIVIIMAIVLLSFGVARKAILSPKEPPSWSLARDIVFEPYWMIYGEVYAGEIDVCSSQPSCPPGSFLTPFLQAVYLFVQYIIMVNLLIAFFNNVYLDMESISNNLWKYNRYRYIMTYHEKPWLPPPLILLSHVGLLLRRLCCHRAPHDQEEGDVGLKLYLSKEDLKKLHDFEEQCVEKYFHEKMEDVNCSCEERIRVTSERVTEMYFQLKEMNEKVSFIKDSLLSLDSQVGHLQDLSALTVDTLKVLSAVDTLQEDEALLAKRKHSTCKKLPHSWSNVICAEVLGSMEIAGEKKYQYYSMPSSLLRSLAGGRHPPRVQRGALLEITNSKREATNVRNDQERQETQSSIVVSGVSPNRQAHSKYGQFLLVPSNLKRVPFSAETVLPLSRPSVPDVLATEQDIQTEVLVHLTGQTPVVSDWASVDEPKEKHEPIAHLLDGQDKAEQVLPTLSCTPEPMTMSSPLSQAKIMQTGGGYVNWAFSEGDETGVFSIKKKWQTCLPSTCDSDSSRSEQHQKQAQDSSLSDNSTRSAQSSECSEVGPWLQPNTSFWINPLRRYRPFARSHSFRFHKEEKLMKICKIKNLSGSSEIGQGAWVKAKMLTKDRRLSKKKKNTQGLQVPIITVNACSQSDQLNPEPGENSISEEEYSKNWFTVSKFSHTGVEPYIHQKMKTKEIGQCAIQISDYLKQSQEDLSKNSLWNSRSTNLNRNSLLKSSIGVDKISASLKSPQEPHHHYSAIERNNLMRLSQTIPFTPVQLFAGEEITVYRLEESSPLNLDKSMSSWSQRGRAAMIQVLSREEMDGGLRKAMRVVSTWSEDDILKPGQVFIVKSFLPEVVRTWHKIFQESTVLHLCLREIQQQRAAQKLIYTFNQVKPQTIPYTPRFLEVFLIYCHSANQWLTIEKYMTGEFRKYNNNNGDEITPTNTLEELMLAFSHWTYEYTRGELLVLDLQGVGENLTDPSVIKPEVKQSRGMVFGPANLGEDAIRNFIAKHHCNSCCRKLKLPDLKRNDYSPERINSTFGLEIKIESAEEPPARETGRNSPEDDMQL
T8 sequence (P36894 24-532): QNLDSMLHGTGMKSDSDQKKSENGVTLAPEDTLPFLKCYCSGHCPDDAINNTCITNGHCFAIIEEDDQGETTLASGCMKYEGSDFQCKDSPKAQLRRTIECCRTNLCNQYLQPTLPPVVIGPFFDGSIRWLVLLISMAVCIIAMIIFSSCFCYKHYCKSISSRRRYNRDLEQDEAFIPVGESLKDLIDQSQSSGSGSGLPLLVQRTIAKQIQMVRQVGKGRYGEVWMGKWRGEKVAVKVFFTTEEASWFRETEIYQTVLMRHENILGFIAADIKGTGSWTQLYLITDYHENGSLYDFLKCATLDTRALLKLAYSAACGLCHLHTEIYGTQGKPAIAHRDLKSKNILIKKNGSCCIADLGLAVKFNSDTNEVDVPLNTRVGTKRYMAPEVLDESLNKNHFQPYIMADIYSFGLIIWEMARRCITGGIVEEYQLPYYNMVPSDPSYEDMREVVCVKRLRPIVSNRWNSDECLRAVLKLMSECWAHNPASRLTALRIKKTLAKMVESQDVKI
T20 sequence (Q13523 whole entry): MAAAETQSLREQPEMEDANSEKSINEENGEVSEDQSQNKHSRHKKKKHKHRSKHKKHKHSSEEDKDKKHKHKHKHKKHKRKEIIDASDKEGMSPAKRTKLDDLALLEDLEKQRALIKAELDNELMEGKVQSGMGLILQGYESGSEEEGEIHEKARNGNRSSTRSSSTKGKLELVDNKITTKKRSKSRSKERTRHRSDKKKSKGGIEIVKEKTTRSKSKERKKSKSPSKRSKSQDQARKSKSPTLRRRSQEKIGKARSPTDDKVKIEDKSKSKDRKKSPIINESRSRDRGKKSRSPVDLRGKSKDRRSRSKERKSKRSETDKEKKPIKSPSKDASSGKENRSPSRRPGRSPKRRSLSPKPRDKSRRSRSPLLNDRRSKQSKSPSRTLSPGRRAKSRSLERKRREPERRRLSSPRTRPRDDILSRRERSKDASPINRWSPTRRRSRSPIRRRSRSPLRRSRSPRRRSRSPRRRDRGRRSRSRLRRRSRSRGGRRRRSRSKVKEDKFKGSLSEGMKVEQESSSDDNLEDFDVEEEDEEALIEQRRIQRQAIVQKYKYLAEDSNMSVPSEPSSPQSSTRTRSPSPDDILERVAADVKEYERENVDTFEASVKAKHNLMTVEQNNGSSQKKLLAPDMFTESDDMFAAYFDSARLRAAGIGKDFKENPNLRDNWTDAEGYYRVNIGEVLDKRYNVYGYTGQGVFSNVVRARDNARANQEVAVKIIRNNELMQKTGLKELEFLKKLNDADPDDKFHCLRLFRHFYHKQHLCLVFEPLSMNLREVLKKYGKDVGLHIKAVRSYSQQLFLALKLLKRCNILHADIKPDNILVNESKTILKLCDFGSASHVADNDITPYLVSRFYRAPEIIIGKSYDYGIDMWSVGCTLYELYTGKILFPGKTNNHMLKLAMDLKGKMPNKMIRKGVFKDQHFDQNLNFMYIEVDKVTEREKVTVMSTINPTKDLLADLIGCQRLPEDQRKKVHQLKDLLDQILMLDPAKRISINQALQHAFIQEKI
T9 sequence (Q00532 whole entry): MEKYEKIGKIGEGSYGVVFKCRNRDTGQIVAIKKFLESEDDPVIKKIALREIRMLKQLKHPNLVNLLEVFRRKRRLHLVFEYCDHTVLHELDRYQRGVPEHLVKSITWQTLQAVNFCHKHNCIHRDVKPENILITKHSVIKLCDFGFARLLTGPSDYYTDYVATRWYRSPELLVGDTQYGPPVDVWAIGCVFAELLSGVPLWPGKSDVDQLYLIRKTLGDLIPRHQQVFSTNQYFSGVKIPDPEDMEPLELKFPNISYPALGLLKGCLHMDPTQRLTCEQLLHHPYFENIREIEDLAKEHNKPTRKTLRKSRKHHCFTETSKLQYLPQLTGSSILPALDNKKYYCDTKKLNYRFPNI

CN(C)C(=O)c1cc2cnc(Nc3ccc(-c4csc5c(=O)cc(N6CCOCC6)oc45)cc3)nc2n1C1CCCC1 [SRX3177]
remaining binding at 1 µM [1]: 46% | remaining binding at 1 µM [2]: 100% | remaining binding at 1 µM [3]: 22% | remaining binding at 1 µM [4]: 32% | remaining binding at 1 µM [5]: 86% | remaining binding at 1 µM [6]: 100% | remaining binding at 1 µM [7]: 100% | remaining binding at 1 µM [8]: 100% | remaining binding at 1 µM [9]: 96% | remaining binding at 1 µM [10]: 86% | Percent Control [11]: 79 | remaining binding at 1 µM ([11]; read-out: Percent Control): 88% | remaining binding at 1 µM [12]: 100% | remaining binding at 1 µM [13]: 100% | remaining binding at 1 µM [14]: 84% | remaining binding at 1 µM ([15]; KIT-autoinhibited): 73% | remaining binding at 1 µM ([15]; KIT): 68% | remaining binding at 1 µM [16]: 89% | remaining binding at 1 µM [17]: 96% | remaining binding at 1 µM [18]: 79% | remaining binding at 1 µM [19]: 58% | remaining binding at 1 µM [20]: 58% | remaining binding at 1 µM [21]: 97% | remaining binding at 1 µM [22]: 100% | remaining binding at 1 µM [23]: 90% | remaining binding at 1 µM [24]: 99% | remaining binding at 1 µM [25]: 71% | remaining binding at 1 µM [26]: 71% | remaining binding at 1 µM [27]: 90% | remaining binding at 1 µM [28]: 92% | remaining binding at 1 µM [29]: 100% | remaining binding at 1 µM [30]: 77% | remaining binding at 1 µM [31]: 81% | remaining binding at 1 µM [32]: 100%
